Assay [1] has as its target T1, NLRP3 (Homo sapiens, UniProt Q96P20). The experiment in a line: Human whole blood IL-1β release assay (LPS + nigericin, AlphaLisa). It counts as cell-based. More on the design: Human whole blood in Li-heparin tubes was obtained from healthy donors; from tissue; host or cells: human whole blood from healthy donors. The conditions noted are these: NLRP3 inhibitory activity, 1 μg/ml LPS, 10 μM nigericin, read-out: HWB IC50. The procedure: For systemic delivery, the ability to inhibit NLRP3 when the compounds are present within the bloodstream is of great importance. For this reason, the NLRP3 inhibitory activity of a number of compounds in human whole blood was investigated in accordance with the following protocol. Human whole blood in Li-heparin tubes was obtained from healthy donors from a volunteer donor panel. • 1. […] Incubate for 3 hrs at 37° C., 5% CO2 • 4. Add 10 μl nigericin (Sigma #N7143) (10 μM FAC) to all wells • 5. Incubate for 1 hr at 37° C., 5% CO2 • 6. At the end of the incubation period, spin plates at 300×g for 5 mins to pellet cells and remove 20 μl of supernatant and add to 96-well v-bottom plates for IL-1β analysis (note: these plates containing the supernatants can be stored at -80° C. to be analysed at a later date) • 7. IL-1β was measured according to the manufacturer protocol (Perkin Elmer-AlphaLisa IL-1 Kit A[…]-5000) • 8.

Assay [2] concerns the target T1, NLRP3. Briefly: THP-1 cells pyroptosis assay (LPS + nigericin, resazurin read-out). It counts as cell-based. Further details: Seed THP-1 cells (25,000 cells/well) containing 1.0 μg/ml LPS; host or cells: THP-1 cells. The note with it: NLRP3 inhibitory activity, 1 μg/ml LPS, 5 μM nigericin. The procedure:
The cells were routinely passaged and grown to confluency (˜10^6 cells/ml). On the day of the experiment, THP-1 cells were harvested and resuspended into RPMI medium (without FBS). The cells were then counted and viability (>90%) checked by Trypan blue (Sigma #T8154). […] To this diluted cell solution was added LPS (Sigma #L4524) to give a 1 μg/ml Final Assay Concentration (FAC). 40 μl of the final preparation was aliquoted into each well of a 96-well plate. The plate thus prepared was used for compound screening. The following method step-by-step assay was followed for compound screening. • 1. […] Incubate for 3 hrs at 37° C., 5% CO2 • 4. Add 5 μl nigericin (Sigma #N7143) (FAC 5 μM) to all wells • 5. Incubate for 1 hr at 37° C., 5% CO2 • 6. At the end of the incubation period, spin plates at 300×g for 3 mins and remove supernatant • 7. Then add 50 μl of resazurin (Sigma #R7017) (FAC 100 μM resazurin in RPMI medium without FBS) and incubate plates for a further 1-2 hrs at 37° C. and 5% CO2 • 8.
(In general: Alamar Blue is a resazurin reagent that responds to reducing activity.)

IC50 data for 24 molecules are collected here from patent publication US20220106289A1, “NLRP3 INHIBITORS” (INFLAZOME LIMITED, priority 2018, published 2022).

Where a name gives a salt, the structure may show the parent alone.

T1 sequence (Q96P20 whole entry): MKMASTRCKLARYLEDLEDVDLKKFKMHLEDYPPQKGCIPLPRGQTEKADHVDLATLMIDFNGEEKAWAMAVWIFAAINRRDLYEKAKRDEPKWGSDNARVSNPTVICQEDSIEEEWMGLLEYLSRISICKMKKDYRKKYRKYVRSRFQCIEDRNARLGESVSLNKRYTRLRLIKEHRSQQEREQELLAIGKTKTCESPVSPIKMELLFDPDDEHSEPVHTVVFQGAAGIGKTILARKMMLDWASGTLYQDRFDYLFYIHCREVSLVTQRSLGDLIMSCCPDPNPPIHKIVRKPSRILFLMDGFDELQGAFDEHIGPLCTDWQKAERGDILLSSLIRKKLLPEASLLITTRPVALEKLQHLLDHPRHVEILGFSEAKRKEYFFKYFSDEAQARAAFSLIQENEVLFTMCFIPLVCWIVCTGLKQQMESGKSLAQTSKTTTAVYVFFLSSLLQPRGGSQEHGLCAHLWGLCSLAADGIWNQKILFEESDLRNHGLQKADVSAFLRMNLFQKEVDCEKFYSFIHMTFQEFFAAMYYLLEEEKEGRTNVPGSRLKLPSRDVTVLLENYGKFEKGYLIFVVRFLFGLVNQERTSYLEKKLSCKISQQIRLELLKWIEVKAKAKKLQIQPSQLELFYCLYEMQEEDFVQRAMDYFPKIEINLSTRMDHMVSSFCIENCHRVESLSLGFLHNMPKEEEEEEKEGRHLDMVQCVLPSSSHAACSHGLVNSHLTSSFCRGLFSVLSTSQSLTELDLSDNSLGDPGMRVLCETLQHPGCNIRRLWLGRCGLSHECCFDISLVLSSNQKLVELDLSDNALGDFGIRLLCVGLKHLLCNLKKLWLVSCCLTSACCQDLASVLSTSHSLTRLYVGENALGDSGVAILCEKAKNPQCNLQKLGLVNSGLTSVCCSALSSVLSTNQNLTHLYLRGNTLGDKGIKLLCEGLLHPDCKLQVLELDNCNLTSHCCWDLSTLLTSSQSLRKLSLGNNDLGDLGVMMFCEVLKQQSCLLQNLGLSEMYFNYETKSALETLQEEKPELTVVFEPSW

A word on the IC50: it is the point on the concentration scale where inhibition reaches its midpoint. `CC(C)n1ccc(S(=O)(=O)NC(=O)Nc2cc(Br)ccc2Sc2nnnn2C)n1` [Example 28, N-((5-Bromo-2-((1-methyl-1H-tetrazol-5-yl)thio)phenyl)carbamoyl)-1-isopropyl-1H-pyrazole-3-sulfonamide]: the IC50 at NLRP3 [1] lay within 5 to 10 µM; at NLRP3 [2] it was 1 to 5 µM.
Taken in the same sequence, the figures for `CC(C)n1ccc(S(=O)(=O)NC(=O)Nc2c3c(cc4c2CCC4=O)CCC3)n1` [Example 31, 1-isopropyl-N-((1-oxo-1,2,3,5,6,7-hexahydro-s-indacen-4-yl)carbamoyl)-1H-pyrazole-3-sulfonamide, sodium salt] were 5 to 10 µM and 1 to 5 µM.
The corresponding values for `CC(C)c1cc(F)cc(C(C)C)c1CC(=O)NS(=O)(=O)c1ccc(CN(C)C)cc1` [Example 33, N-((4-((Dimethylamino)methyl)phenyl)sulfonyl)-2-(4-fluoro-2,6-diisopropylphenyl)acetamide, 2,2,2-trifluoroacetate salt] are 1 to 5 µM and 1 to 5 µM.
Take `CC(C)c1cc(Cl)c2c(c1NC(=O)NS(=O)(=O)c1ccn(C(C)C)n1)CCC2` [Example 34, N-((7-Chloro-5-isopropyl-2,3-dihydro-1H-inden-4-yl)carbamoyl)-1-isopropyl-1H-pyrazole-3-sulfonamide]: the half-maximal inhibitory concentration (IC50) lay in the range of 5 to 10 µM at NLRP3 [1] and 0.25 to 0.5 µM at NLRP3 [2].
The corresponding values for `CC(C)n1ccc(S(=O)(=O)NC(=O)Nc2c3c(c(Cl)c4c2CCC4)CCC3)n1` [Example 35, N-((8-Chloro-1,2,3,5,6,7-hexahydro-s-indacen-4-yl)carbamoyl)-1-isopropyl-1H-pyrazole-3-sulfonamide] are 5 to 10 µM and < 0.25 µM.
For the molecule `CC(C)n1cc(S(=O)(=O)NC(=O)Nc2c3c(c(Br)c4c2CCC4)CCC3)cn1` [Example 36, N-((8-Bromo-1,2,3,5,6,7-hexahydro-s-indacen-4-yl)carbamoyl)-1-isopropyl-1H-pyrazole-4-sulfonamide], the IC50 at NLRP3 [1] was 5 to 10 µM; at NLRP3 [2], < 0.25 µM.
Taken in the same sequence, the figures for `CC(C)c1cc(Cl)cc(C(C)C)c1NC(=O)NS(=O)(=O)c1cnn(CC(F)(F)F)c1` [Example 40, N-((4-Chloro-2,6-diisopropylphenyl)carbamoyl)-1-(2,2,2-trifluoroethyl)-1H-pyrazole-4-sulfonamide] were 1 to 5 µM and 0.25 to 0.5 µM.
Taken in the same sequence, the figures for `O=C(Nc1c2c(cc3c1CCC3)CCC2)NS(=O)(=O)c1cnn(CC(F)(F)F)c1` [Example 41, N-((1,2,3,5,6,7-Hexahydro-s-indacen-4-yl)carbamoyl)-1-(2,2,2-trifluoroethyl)-1H-pyrazole-4-sulfonamide, sodium salt] were 5 to 10 µM and 0.25 to 0.5 µM.
The corresponding values for `O=C(Nc1c2c(cc3c1CCC3)CCC2)NS(=O)(=O)c1ccn(CC(F)(F)F)n1` [Example 42, N-((1,2,3,5,6,7-Hexahydro-s-indacen-4-yl)carbamoyl)-1-(2,2,2-trifluoroethyl)-1H-pyrazole-3-sulfonamide] are 1 to 5 µM and < 0.25 µM.
`CC(C)n1nncc1S(=O)(=O)NC(=O)Nc1c2c(cc3c1CCC3)CCC2` [Example 47, N-((1,2,3,5,6,7-Hexahydro-s-indacen-4-yl)carbamoyl)-1-isopropyl-1H-1,2,3-triazole-5-sulfonamide]: the IC50 on NLRP3 [1] is 1 to 5 µM; at NLRP3 [2], < 0.25 µM.
The corresponding values for `CC(C)n1ncc(S(=O)(=O)NC(=O)Nc2c3c(cc4c2CCC4)CCC3)n1` [Example 48, N-((1,2,3,5,6,7-Hexahydro-s-indacen-4-yl)carbamoyl)-2-isopropyl-2H-1,2,3-triazole-4-sulfonamide] are 1 to 5 µM and < 0.25 µM.
Taken in the same sequence, the figures for `CC(C)n1nc(S(=O)(=O)NC(=O)Nc2c3c(cc4c2CCC4)CCC3)cc1C(C)(C)O` [Example 49, N-((1,2,3,5,6,7-Hexahydro-s-indacen-4-yl)carbamoyl)-5-(2-hydroxypropan-2-yl)-1-isopropyl-1H-pyrazole-3-sulfonamide] were 0.5 to 1 µM and < 0.25 µM.
The corresponding values for `COC1(c2cc(S(=O)(=O)NC(=O)Nc3c4c(cc5c3CCC5)CCC4)nn2C)CCCC1` [Example 52, N-((1,2,3,5,6,7-hexahydro-s-indacen-4-yl)carbamoyl)-5-(1-methoxycyclopentyl)-1-methyl-1H-pyrazole-3-sulfonamide] are 0.5 to 1 µM and < 0.25 µM.
Take `COC(C)c1cc(S(=O)(=O)NC(=O)Nc2c3c(cc4c2CCC4)CCC3)nn1C` (stereo not drawn) [Example 53, N-((1,2,3,5,6,7-Hexahydro-s-indacen-4-yl)carbamoyl)-5-(1-methoxyethyl)-1-methyl-1H-pyrazole-3-sulfonamide]: the IC50 is 0.5 to 1 µM on NLRP3 [1] and < 0.25 µM on NLRP3 [2].
Taken in the same sequence, the figures for `CC(O)c1cc(S(=O)(=O)NC(=O)Nc2c3c(cc4c2CCC4)CCC3)nn1C(C)C` (stereo not drawn) [Example 54, N-((1,2,3,5,6,7-Hexahydro-s-indacen-4-yl)carbamoyl)-5-(1-hydroxyethyl)-1-isopropyl-1H-pyrazole-3-sulfonamide] were 0.5 to 1 µM and < 0.25 µM.
Taken in the same sequence, the figures for `CC(C)n1cc(F)c(S(=O)(=O)NC(=O)Nc2c3c(cc4c2CCC4)CCC3)n1` [Example 55, 4-Fluoro-N-((1,2,3,5,6,7-hexahydro-s-indacen-4-yl)carbamoyl)-1-isopropyl-1H-pyrazole-3-sulfonamide] were 0.5 to 1 µM and < 0.25 µM.
The corresponding values for `CC(C)(CN1CCC1)n1ccc(S(=O)(=O)NC(=O)Nc2c3c(cc4c2CCC4)CCC3)n1` [Example 56, 1-(1-(Azetidin-1-yl)-2-methylpropan-2-yl)-N-((1,2,3,5,6,7-hexahydro-s-indacen-4-yl)carbamoyl)-1H-pyrazole-3-sulfonamide] are 0.25 to 0.5 µM and < 0.25 µM.
In the case of `Cc1cc(CN(C)C)cc(S(=O)(=O)NC(=O)Nc2c3c(cc4c2CCC4)CCC3)c1` [Example 57, 3-((Dimethylamino)methyl)-N-((1,2,3,5,6,7-hexahydro-s-indacen-4-yl)carbamoyl)-5-methylbenzenesulfonamide, sodium salt], the values for the half-inhibitory concentration (IC50) at NLRP3 [1] and at NLRP3 [2] were 1 to 5 µM and < 0.25 µM, respectively.
The corresponding values for `O=C(Nc1c2c(cc3c1CCC3)CCC2)NS(=O)(=O)c1ccn(C2CCC2)n1` [Example 59, 1-Cyclobutyl-N-((1,2,3,5,6,7-hexahydro-s-indacen-4-yl)carbamoyl)-1H-pyrazole-3-sulfonamide] are 1 to 5 µM and < 0.25 µM.
The corresponding values for `CN(C)CC1(n2ccc(S(=O)(=O)NC(=O)Nc3c4c(cc5c3CCC5)CCC4)n2)CCC1` [Example 60, 1-(1-((Dimethylamino)methyl)cyclobutyl)-N-((1,2,3,5,6,7-hexahydro-s-indacen-4-yl)carbamoyl)-1H-pyrazole-3-sulfonamide] are < 0.25 µM and < 0.25 µM.
The corresponding values for `CC(C)n1ccc(S(=O)(=O)NC(=O)Nc2c3c(c(F)c4c2CCC4)CCC3)n1` [Example 61, N-((8-Fluoro-1,2,3,5,6,7-hexahydro-s-indacen-4-yl)carbamoyl)-1-isopropyl-1H-pyrazole-3-sulfonamide, sodium salt] are 0.5 to 1 µM and < 0.25 µM.
For the molecule `CC(C)n1nc(S(=O)(=O)NC(=O)Nc2c3c(cc4c2CCC4)CCC3)cc1F` [Example 62, 5-Fluoro-N-((1,2,3,5,6,7-hexahydro-s-indacen-4-yl)carbamoyl)-1-isopropyl-1H-pyrazole-3-sulfonamide, sodium salt], the IC50 at NLRP3 [1] was > 10 µM; on NLRP3 [2], < 0.25 µM.
Taken in the same sequence, the figures for `O=C(Nc1c2c(cc3c1CCC3)CCC2)NS(=O)(=O)c1ccn(CC(F)F)n1` [Example 63, 1-(2,2-Difluoroethyl)-N-((1,2,3,5,6,7-hexahydro-s-indacen-4-yl)carbamoyl)-1H-pyrazole-3-sulfonamide, sodium salt] were 1 to 5 µM and < 0.25 µM.
The corresponding values for `CC(C)(CN1CCCC1)n1ccc(S(=O)(=O)NC(=O)Nc2c3c(cc4c2CCC4)CCC3)n1` [Example 65, N-((1,2,3,5,6,7-Hexahydro-s-indacen-4-yl)carbamoyl)-1-(2-methyl-1-(pyrrolidin-1-yl)propan-2-yl)-1H-pyrazole-3-sulfonamide, sodium salt] are 0.25 to 0.5 µM and < 0.25 µM.
